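48-hour exposure; five concentrations; linearly interpolated endpoints. GI50 marks 50% less growth.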 Calls of active or inactive are those of the source. No stated cut-off is given here; in the data, active = GI50 up to about 1.1 µM and inactive = higher.
What was measured:
Assay in all cases: growth of human tumour cells (NCI), 48 h
786-0 = test system: 786-0
A498 = test system: A498
A549 = test system: A549
ACHN = test system: ACHN
BT-549 = test system: BT-549
CAKI-1 = test system: CAKI-1
COLO 205 = test system: COLO 205
DU-145 = test system: DU-145
EKVX = test system: EKVX
HCC 2998 = test system: HCC 2998
HCT-116 = test system: HCT-116
HCT-15 = test system: HCT-15
HL-60 = test system: HL-60
HOP-92 = test system: HOP-92
HT-29 = test system: HT-29
Hs-578T = test system: Hs-578T
IGROV-1 = test system: IGROV-1
K562 = test system: K562
KM12 = test system: KM12
LOX IMVI = test system: LOX IMVI
M14 = test system: M14
MCF7 = test system: MCF7
MDA-MB-231 = test system: MDA-MB-231
MDA-MB-435 = test system: MDA-MB-435
MDA-N = test system: MDA-N
Malme-3M = test system: Malme-3M
NCI-H226 = test system: NCI-H226
NCI-H23 = test system: NCI-H23
NCI-H460 = test system: NCI-H460
NCI-H522 = test system: NCI-H522
NCI/ADR-RES = test system: NCI/ADR-RES
OVCAR-3 = test system: OVCAR-3
OVCAR-4 = test system: OVCAR-4
OVCAR-5 = test system: OVCAR-5
OVCAR-8 = test system: OVCAR-8
PC-3 = test system: PC-3
RPMI-8226 = test system: RPMI-8226
RXF 393 = test system: RXF 393
SF-268 = test system: SF-268
SF-295 = test system: SF-295
SF-539 = test system: SF-539
SK-MEL-28 = test system: SK-MEL-28
SK-MEL-2 = test system: SK-MEL-2
SK-MEL-5 = test system: SK-MEL-5
SK-OV-3 = test system: SK-OV-3
SN12C = test system: SN12C
SNB-19 = test system: SNB-19
SNB-75 = test system: SNB-75
SW-620 = test system: SW-620
T47D = test system: T47D
TK-10 = test system: TK-10
U-251 = test system: U-251
UACC-257 = test system: UACC-257
UACC-62 = test system: UACC-62
UO-31 = test system: UO-31
CCRF-CEM = test system: CCRF-CEM
HOP-62 = test system: HOP-62
MOLT-4 = test system: MOLT-4

Measured: GI50

CC(C)(C)n1c(=O)n2c(-c3ccccc3)c(-c3ccccc3)n2c1=O
inactive: 786-0 57.5 µM | A498 > 100 µM | A549 56.9 µM | ACHN > 100 µM | BT-549 53.7 µM | CAKI-1 > 100 µM | COLO 205 > 100 µM | DU-145 > 100 µM | EKVX > 100 µM | HCC 2998 49.7 µM | HCT-116 25.4 µM | HL-60 11.5 µM | HOP-92 > 100 µM | HT-29 66.7 µM | Hs-578T > 100 µM | IGROV-1 > 100 µM | K562 1.24 µM | KM12 > 100 µM | LOX IMVI 68.4 µM | M14 37 µM | MCF7 56.6 µM | MDA-MB-231 > 100 µM | MDA-MB-435 > 100 µM | MDA-N > 100 µM | Malme-3M > 100 µM | NCI-H226 > 100 µM | NCI-H23 > 100 µM | NCI-H460 > 100 µM | NCI-H522 17.5 µM | NCI/ADR-RES > 100 µM | OVCAR-3 > 100 µM | OVCAR-4 72.6 µM | OVCAR-5 > 100 µM | OVCAR-8 > 100 µM | PC-3 44.7 µM | RPMI-8226 17.1 µM | RXF 393 76 µM | SF-268 > 100 µM | SF-295 > 100 µM | SF-539 36.8 µM | SK-MEL-28 > 100 µM | SK-MEL-2 28.8 µM | SK-MEL-5 71.8 µM | SK-OV-3 > 100 µM | SN12C > 100 µM | SNB-19 > 100 µM | SNB-75 > 100 µM | SW-620 > 100 µM | T47D > 100 µM | TK-10 > 100 µM | U-251 > 100 µM | UACC-257 > 100 µM | UACC-62 > 100 µM | UO-31 12.5 µM
> 100 µM: HCT-15

C/C1=C\CC[C@@]2(C)O[C@@H]2C[C@@H]2[C@H](C/C(C)=C/CC1)OC(=O)C21CCN=N1 (stereo partly drawn)
inactive: 786-0 > 75 µM | A498 > 100 µM | A549 51.2 µM | ACHN 35.3 µM | BT-549 > 75 µM | CAKI-1 > 75 µM | CCRF-CEM 15 µM | COLO 205 > 75 µM | DU-145 > 75 µM | EKVX > 75 µM | HCC 2998 > 75 µM | HCT-116 > 75 µM | HL-60 37.2 µM | HOP-62 27.9 µM | HOP-92 > 75 µM | HT-29 > 75 µM | Hs-578T 38 µM | IGROV-1 > 75 µM | K562 6.98 µM | KM12 > 75 µM | LOX IMVI 21 µM | M14 > 75 µM | MCF7 > 75 µM | MDA-MB-231 > 75 µM | MDA-MB-435 > 75 µM | MDA-N > 75 µM | MOLT-4 16 µM | Malme-3M > 75 µM | NCI-H226 > 100 µM | NCI-H23 > 75 µM | NCI-H460 39.6 µM | NCI-H522 72.4 µM | NCI/ADR-RES > 75 µM | OVCAR-3 > 75 µM | OVCAR-4 61.8 µM | OVCAR-5 > 75 µM | OVCAR-8 > 75 µM | PC-3 > 75 µM | RPMI-8226 31.3 µM | RXF 393 > 75 µM | SF-268 > 75 µM | SF-295 32.4 µM | SF-539 > 75 µM | SK-MEL-28 > 75 µM | SK-MEL-2 > 75 µM | SK-MEL-5 34.9 µM | SK-OV-3 > 75 µM | SN12C 37.8 µM | SNB-19 > 75 µM | SNB-75 25.9 µM | SW-620 > 75 µM | T47D > 100 µM | TK-10 > 75 µM | U-251 > 75 µM | UACC-257 > 75 µM | UACC-62 > 75 µM | UO-31 > 75 µM
> 75 µM: HCT-15

— ChEMBL document CHEMBL1201862, “PubChem BioAssay data set” (2004)
